Reference: ChEMBL document CHEMBL1201862, “PubChem BioAssay data set” (2004)
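Method: 48-hour compound exposure of cells in 96-well plates, five concentrations, linear interpolation of endpoints. At the GI50, growth is halved.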 Activity calls are given as the source filed them. Rule as the data show it: active = GI50 up to about 1.1 µM and inactive = higher.

Legend:
Assay in all cases: NCI-60 cell line screen, 48 h
786-0 = tested on: 786-0
A498 = tested on: A498
A549 = tested on: A549
ACHN = tested on: ACHN
CAKI-1 = tested on: CAKI-1
CCRF-CEM = tested on: CCRF-CEM
DLD-1 = tested on: DLD-1
DMS-273 = tested on: DMS-273
EKVX = tested on: EKVX
HCC 2998 = tested on: HCC 2998
HCT-116 = tested on: HCT-116
HCT-15 = tested on: HCT-15
HL-60 = tested on: HL-60
HOP-18 = tested on: HOP-18
HOP-62 = tested on: HOP-62
HOP-92 = tested on: HOP-92
HT-29 = tested on: HT-29
IGROV-1 = tested on: IGROV-1
K562 = tested on: K562
KM-20L2 = tested on: KM-20L2
KM12 = tested on: KM12
LOX IMVI = tested on: LOX IMVI
LXFL 529 = tested on: LXFL 529
M14 = tested on: M14
M19-MEL = tested on: M19-MEL
MOLT-4 = tested on: MOLT-4
Malme-3M = tested on: Malme-3M
NCI-H226 = tested on: NCI-H226
NCI-H23 = tested on: NCI-H23
NCI-H460 = tested on: NCI-H460
OVCAR-3 = tested on: OVCAR-3
OVCAR-4 = tested on: OVCAR-4
OVCAR-5 = tested on: OVCAR-5
OVCAR-8 = tested on: OVCAR-8
RPMI-8226 = tested on: RPMI-8226
RXF 393 = tested on: RXF 393
SF-268 = tested on: SF-268
SF-295 = tested on: SF-295
SF-539 = tested on: SF-539
SK-MEL-28 = tested on: SK-MEL-28
SK-MEL-2 = tested on: SK-MEL-2
SK-MEL-5 = tested on: SK-MEL-5
SN12C = tested on: SN12C
SNB-19 = tested on: SNB-19
SNB-75 = tested on: SNB-75
SNB-78 = tested on: SNB-78
SR = tested on: SR
SW-620 = tested on: SW-620
TK-10 = tested on: TK-10
UACC-257 = tested on: UACC-257
UACC-62 = tested on: UACC-62
UO-31 = tested on: UO-31
XF498 = tested on: XF498
COLO 205 = tested on: COLO 205
DMS-114 = tested on: DMS-114
NCI-H522 = tested on: NCI-H522
NCI/ADR-RES = tested on: NCI/ADR-RES
SK-OV-3 = tested on: SK-OV-3
U-251 = tested on: U-251

CC(=O)CCn1ncc(Cl)c(Cl)c1=O
GI50 (786-0): 20.5 µM (inactive)
GI50 (A498): 24.9 µM (inactive)
GI50 (A549): 23 µM (inactive)
GI50 (ACHN): 17 µM (inactive)
GI50 (CAKI-1): 1.91 µM (inactive)
GI50 (CCRF-CEM): 21.9 µM (inactive)
GI50 (DLD-1): 11.2 µM (inactive)
GI50 (DMS-273): 17.7 µM (inactive)
GI50 (EKVX): 18.6 µM (inactive)
GI50 (HCC 2998): 9.51 µM (inactive)
GI50 (HCT-116): 14.5 µM (inactive)
GI50 (HCT-15): 6.55 µM
GI50 (HL-60): 8.39 µM (inactive)
GI50 (HOP-18): 16.6 µM (inactive)
GI50 (HOP-62): 19.7 µM (inactive)
GI50 (HOP-92): 17 µM (inactive)
GI50 (HT-29): 14.1 µM (inactive)
GI50 (IGROV-1): 18.7 µM (inactive)
GI50 (K562): 3.51 µM (inactive)
GI50 (KM-20L2): 16.5 µM (inactive)
GI50 (KM12): 17.7 µM (inactive)
GI50 (LOX IMVI): 15.6 µM (inactive)
GI50 (LXFL 529): 13.4 µM (inactive)
GI50 (M14): 15.7 µM (inactive)
GI50 (M19-MEL): 4.92 µM (inactive)
GI50 (MOLT-4): 20.6 µM (inactive)
GI50 (Malme-3M): 20.7 µM (inactive)
GI50 (NCI-H226): 16.7 µM (inactive)
GI50 (NCI-H23): 15 µM (inactive)
GI50 (NCI-H460): 20.2 µM (inactive)
GI50 (OVCAR-3): 13.7 µM (inactive)
GI50 (OVCAR-4): 9.95 µM (inactive)
GI50 (OVCAR-5): 19.1 µM (inactive)
GI50 (OVCAR-8): 23.2 µM (inactive)
GI50 (RPMI-8226): 14.2 µM (inactive)
GI50 (RXF 393): 17.3 µM (inactive)
GI50 (SF-268): 12.1 µM (inactive)
GI50 (SF-295): 19.1 µM (inactive)
GI50 (SF-539): 22.2 µM (inactive)
GI50 (SK-MEL-28): 13.8 µM (inactive)
GI50 (SK-MEL-2): 14.2 µM (inactive)
GI50 (SK-MEL-5): 19.2 µM (inactive)
GI50 (SN12C): 14.3 µM (inactive)
GI50 (SNB-19): 18 µM (inactive)
GI50 (SNB-75): 34.4 µM (inactive)
GI50 (SNB-78): 19.8 µM (inactive)
GI50 (SR): 9.59 µM (inactive)
GI50 (SW-620): 19 µM (inactive)
GI50 (TK-10): 48.6 µM (inactive)
GI50 (UACC-257): 16.5 µM (inactive)
GI50 (UACC-62): 17.2 µM (inactive)
GI50 (UO-31): 20 µM (inactive)
GI50 (XF498): 19.7 µM (inactive)

CNC(=O)c1cccc2c(Nc3ccc(NS(C)(=O)=O)cc3OC)c3cccc(C)c3nc12
GI50 (786-0): 0.0483 µM (active)
GI50 (A498): 0.0841 µM (active)
GI50 (A549): 0.0151 µM (active)
GI50 (ACHN): 0.014 µM (active)
GI50 (CAKI-1): 0.0207 µM (active)
GI50 (CCRF-CEM): 0.0133 µM (active)
GI50 (COLO 205): 0.542 µM (active)
GI50 (DMS-114): 0.0322 µM (active)
GI50 (DMS-273): 0.0219 µM (active)
GI50 (EKVX): 1.34 µM (inactive)
GI50 (HCC 2998): 0.568 µM (active)
GI50 (HCT-116): 0.243 µM (active)
GI50 (HCT-15): 0.225 µM
GI50 (HL-60): 0.0131 µM (active)
GI50 (HOP-18): 0.571 µM (active)
GI50 (HOP-62): 0.0244 µM (active)
GI50 (HOP-92): 0.228 µM (active)
GI50 (HT-29): 0.478 µM (active)
GI50 (IGROV-1): 1.31 µM (inactive)
GI50 (K562): 0.23 µM (active)
GI50 (KM-20L2): 0.409 µM (active)
GI50 (KM12): 0.479 µM (active)
GI50 (LOX IMVI): 0.0488 µM (active)
GI50 (LXFL 529): 1.91 µM (inactive)
GI50 (M14): 0.102 µM (active)
GI50 (M19-MEL): 0.585 µM (active)
GI50 (MOLT-4): 0.0113 µM (active)
GI50 (Malme-3M): 0.43 µM (active)
GI50 (NCI-H226): 0.0546 µM (active)
GI50 (NCI-H23): 0.0418 µM (active)
GI50 (NCI-H460): < 0.01 µM (active)
GI50 (NCI-H522): 0.279 µM (active)
GI50 (NCI/ADR-RES): 2.26 µM (inactive)
GI50 (OVCAR-3): 1.39 µM (inactive)
GI50 (OVCAR-4): 1.9 µM (inactive)
GI50 (OVCAR-5): 0.282 µM (active)
GI50 (OVCAR-8): 0.333 µM (active)
GI50 (RPMI-8226): 0.0525 µM (active)
GI50 (RXF 393): 0.533 µM (active)
GI50 (SF-268): 0.114 µM (active)
GI50 (SF-295): 0.0333 µM (active)
GI50 (SF-539): 0.0628 µM (active)
GI50 (SK-MEL-28): 2.21 µM (inactive)
GI50 (SK-MEL-2): 1.64 µM (inactive)
GI50 (SK-MEL-5): 0.131 µM (active)
GI50 (SK-OV-3): 0.054 µM (active)
GI50 (SN12C): 0.0326 µM (active)
GI50 (SNB-19): 0.0555 µM (active)
GI50 (SNB-75): 0.122 µM (active)
GI50 (SR): < 0.01 µM (active)
GI50 (SW-620): 0.169 µM (active)
GI50 (TK-10): 1.24 µM (inactive)
GI50 (U-251): 0.0251 µM (active)
GI50 (UACC-257): 1.7 µM (inactive)
GI50 (UACC-62): 0.0631 µM (active)
GI50 (UO-31): 0.425 µM (active)
GI50 (XF498): 0.196 µM (active)

COc1cccc(-c2cc(O)c3ccccc3n2)c1
GI50 (786-0): 5.25 µM (inactive)
GI50 (A498): 11.4 µM (inactive)
GI50 (A549): 6.92 µM (inactive)
GI50 (ACHN): 6.92 µM (inactive)
GI50 (CCRF-CEM): 4.56 µM (inactive)
GI50 (COLO 205): 4.93 µM (inactive)
GI50 (DLD-1): 3.63 µM (inactive)
GI50 (DMS-114): 4.69 µM (inactive)
GI50 (DMS-273): 4.53 µM (inactive)
GI50 (EKVX): 52.2 µM (inactive)
GI50 (HCC 2998): 6.58 µM (inactive)
GI50 (HCT-116): 5.53 µM (inactive)
GI50 (HCT-15): 4.7 µM
GI50 (HL-60): 2.98 µM (inactive)
GI50 (HOP-18): 15.2 µM (inactive)
GI50 (HOP-62): 8.18 µM (inactive)
GI50 (HT-29): 3.82 µM (inactive)
GI50 (IGROV-1): 17.2 µM (inactive)
GI50 (K562): 4.72 µM (inactive)
GI50 (KM-20L2): 9.77 µM (inactive)
GI50 (KM12): 4.03 µM (inactive)
GI50 (LOX IMVI): 5.18 µM (inactive)
GI50 (LXFL 529): 4.86 µM (inactive)
GI50 (M14): 4.82 µM (inactive)
GI50 (M19-MEL): 8.15 µM (inactive)
GI50 (MOLT-4): 6.55 µM (inactive)
GI50 (Malme-3M): 3.89 µM (inactive)
GI50 (NCI-H226): 6.89 µM (inactive)
GI50 (NCI-H23): 7.52 µM (inactive)
GI50 (NCI-H460): 4.59 µM (inactive)
GI50 (NCI-H522): 3.06 µM (inactive)
GI50 (OVCAR-3): 4.2 µM (inactive)
GI50 (OVCAR-4): > 100 µM (inactive)
GI50 (OVCAR-5): 7.43 µM (inactive)
GI50 (OVCAR-8): 6.24 µM (inactive)
GI50 (RPMI-8226): 5.45 µM (inactive)
GI50 (RXF 393): 2.79 µM (inactive)
GI50 (SF-268): 10.3 µM (inactive)
GI50 (SF-295): 2.81 µM (inactive)
GI50 (SF-539): 3.57 µM (inactive)
GI50 (SK-MEL-28): > 100 µM (inactive)
GI50 (SK-MEL-2): 24.9 µM (inactive)
GI50 (SK-MEL-5): 4.48 µM (inactive)
GI50 (SK-OV-3): 5.38 µM (inactive)
GI50 (SN12C): 6.46 µM (inactive)
GI50 (SNB-19): 6.82 µM (inactive)
GI50 (SNB-75): 4.98 µM (inactive)
GI50 (SR): 5.5 µM (inactive)
GI50 (SW-620): 3.28 µM (inactive)
GI50 (TK-10): > 100 µM (inactive)
GI50 (U-251): 9.53 µM (inactive)
GI50 (UACC-257): 2.32 µM (inactive)
GI50 (UACC-62): 4.06 µM (inactive)
GI50 (UO-31): 6.18 µM (inactive)
GI50 (XF498): 4.07 µM (inactive)
